The values below come from patent publication US20210093531A1, “DERIVATIVES OF MENTHOL AND USES THEREOF” (Board of Trustees of Northern Illinois University, priority 2019, published 2021).

Common to all, as to format: in vivo
Assay [1] deals with trained panelists. The assay is described as follows: time-intensity analysis of cooling, mouthwash application. The conditions noted are these: for Iext (cooling intensity at end of evaluation): 15 minutes after expectoration. As for the experimental part:
In order to evaluate the potential use of menthol glycinates as […] different food, beverage and oral hygiene products, select compounds were incorporated in different application systems. A beverage model system, a lozenge and a mouthwash application were created, and time-intensity analysis was performed using trained discrimination analysis panelists. Time-Intensity (TI) is a temporal sensory method. During TI evaluations, assessors are asked to score the intensity of perception of a single attribute over consumption of the product. Compared to single point measurements, TI analysis can characterize the onset, decline and rates thereof, of particular sensory characteristics. This analysis may reveal rich information regarding the intensity of an attribute over the time domain and identify temporal perceptual differences among samples that can greatly impact the overall profile of a product. For each sample evaluation, a temporal curve is generated, based on duplication. The temporal curves for each panelist are combined to generate a combined curve for each product that is evaluated. The following distinct parameters were calculated: Imax: peak intensity or maximum observed intensity on the whole curve; […]: time point where the reaction to the stimulus is first perceived on the curve; Tmax: time position of the peak intensity on the curve; Tplateau: protraction of maximum intensity or duration of maximum intensity; Text: time point of extinction of the perception of the stimulus, defined as the position in time after the peak intensity where the measured intensity disappears (or the end of evaluation window); Iext: intensity at time of extinction or end of evaluation; R increase: slope or rate of intensity increase between […] and Tmax; R decrease: slope or rate of intensity decrease between Tmax and Text; and Area: the total area under the time-intensity curve. The formula shown in Table 8 was employed to create a mouthwash product to evaluate […] of interest using time-Intensity analysis. [table] The following test compounds were evaluated: menthol, XI-I-60, RK-2-10, XI-I-65, DK-1-50, and XI-2-73. For time-intensity (T-I) evaluation of the cooling attributes of mouthwash products, 8 panelists were recruited (2 male, 6 female). Panelists were trained in basic taste descriptive analysis. A sweetness reference series (intensity range 2-12) was provided to be used as cross-modality reference to aid in scaling the intensity of the cooling attribute present in the mouthwash samples. Panelists evaluated samples in duplicates and all sample were presented blinded and in a randomized order using a 3-digit code. Panelist evaluated 15 ml of mouthwash at a time and were instructed to rinse for 30 seconds and expectorate. Panelists were instructed to provide cooling intensities before and after expectoration. For the time before expectoration, evaluation started upon introducing the sample and every 10 seconds thereafter. After expectoration, the evaluation continued for 15 minutes and panelists provided cooling intensity ratings at predetermined times. Due to the unique nature of this product and the interest in prolonging the cooling attribute long after consumption, an additional parameter led was evaluated among samples via ANOVA. This parameter is the cooling intensity at time of extinction or in our case the end of evaluation. Data analysis for generation of T-I statistics and ANOVA analysis to determine significant difference among samples was performed using R STUDIO.

Assay [2] in a line: organoleptic evaluation in ethanol, propylene glycol and water. The conditions noted are these: for organoleptic properties, EtOH / organoleptic properties, PG / organoleptic properties (entry names no solvent): 100 ppm; for organoleptic properties, EtOH: ethanol cut in aqueous solution; for organoleptic properties, PG: propylene glycol cut in aqueous solution; for organoleptic properties (entry names no solvent): entry without solvent suffix. The protocol:
Stock solutions for each solution was prepared as described below to afinal concentration of 100 ppm.
c. Mix well to achieve final concentration of 100 ppm.
a. Prepare a stock solution of 2.5% solution in PG by adding 25 mg of menthol analog in 1 gram of PG (mix well).
Organoleptic properties by compound are listed below for menthol derivatives in ethanol, propylene glycol, and water: […]

For assay [3], the system named is trained panelists. The assay is described as follows: time-intensity analysis of cooling, lozenge application. The conditions noted are these: 4-minute window. As for the experimental part: In order to evaluate the potential use of menthol glycinates as […] different food, beverage and oral hygiene products, select compounds were incorporated in different application systems. A beverage model system, a lozenge and a mouthwash application were created, and time-intensity analysis was performed using trained discrimination analysis panelists. Time-Intensity (TI) is a temporal sensory method. During TI evaluations, assessors are asked to score the intensity of perception of a single attribute over consumption of the product. Compared to single point measurements, TI analysis can characterize the onset, decline and rates thereof, of particular sensory characteristics. This analysis may reveal rich information regarding the intensity of an attribute over the time domain and identify temporal perceptual differences among samples that can greatly impact the overall profile of a product. For each sample evaluation, a temporal curve is generated, based on duplication. The temporal curves for each panelist are combined to generate a combined curve for each product that is evaluated. The following distinct parameters were calculated: Imax: peak intensity or maximum observed intensity on the whole curve; […]: time point where the reaction to the stimulus is first perceived on the curve; Tmax: time position of the peak intensity on the curve; Tplateau: protraction of maximum intensity or duration of maximum intensity; Text: time point of extinction of the perception of the stimulus, defined as the position in time after the peak intensity where the measured intensity disappears (or the end of evaluation window); Iext: intensity at time of extinction or end of evaluation; R increase: slope or rate of intensity increase between […] and Tmax; R decrease: slope or rate of intensity decrease between Tmax and Text; and Area: the total area under the time-intensity curve. The formula detailed in Table 4 was employed to create the lozenge application to evaluate menthol glycinates of interest using time-intensity analysis. [table] For time-intensity (T-I) evaluation of the cooling intensity of lozenges, 9 panelists were recruited (3 male, 6 female). Panelists were trained in basic taste descriptive analysis. A sweetness reference series (intensity range 2-12) was provided to be used as cross-modality reference to aid in scaling the intensity of the cool attribute present in the lozenge samples. Panelists evaluated samples in duplicates and all samples were presented blinded and in a randomized order using a 3-digit code. Panelists were instructed to provide cooling intensity at predetermined time points throughout an evaluation window of 4 minutes. […] Evaluations were performed with at least 4 hours between them to ensure no carry over. Data analysis for generation of T-I statistics and ANOVA analysis to determine significant difference among samples was performed using R STUDIO.

[4] abbreviates: after expectoration for 15 minutes (Table 9b).
Where [5] appears, read: rinse phase 30 seconds (Table 9a).

“Also recorded” adds a separate entry of the source. Marks after values point to notes of the source that are not given here.

For the compound `CC1CCC(C(C)C)C(O)C1` (centres unmarked) [Menthol, menthol], the “Iext (cooling intensity at end of evaluation)” value (shortened to “Iext”) in the assay with trained panelists [1] is listed as 1^a. Also, in the assay with trained panelists [1] (setting [4]), the AUC is reported as 3608.38^a, the I max is 12.01^a^, the Rdec is recorded as −0.03^a and the Rinc is on record as 0.00^a. Further, in the assay with trained panelists [1] (setting [4]), the Tmax was 33.53^a and the Tstart was 30.00^a. In addition, in the assay with trained panelists [1] (setting [5]), the AUC is listed as 168.97^a, the Imax was 12.56^a, the Rdec is given as −0.09^a and the Rinc was 0.21^a. Further, in the assay on trained panelists [1] (setting [5]), the Tstart is listed as 10.88^a. Moreover, the “organoleptic properties of menthol” value in assay [2] (simple solutions of PG and water or ethanol) was “very strong, instantaneous cooling effect”. The “Imax (peak cooling intensity)” value in the assay with trained panelists [3] (0.05 g test compound per 100 g, 2 g sample, 9 panelists) is 11.53^bc^. In addition, in the assay on trained panelists [3], the “AUC (total area under time-intensity curve)” value is given as 2064.83^b, the “RDec (rate of intensity decrease)” value is on record as 0.056^b, the “RInc (rate of intensity increase)” value is reported as 0.053^b and the “Tmax (time of peak intensity)” value was 180.00^b. In the assay on trained panelists [3], the “Tstart (time cooling first perceived)” value is 5.00^b.

`CCCCN(CCCC)CC(=O)O[C@@H]1C[C@H](C)CC[C@H]1C(C)C` [Product 10, (1R,2S,5R)-2-Isopropyl-5-methylcyclohexyl 2-(dibutylamino)acetate]: the “Iext” value with trained panelists [1] is recorded as 0.9^a. Besides, in the assay on trained panelists [1] (setting [4]), the AUC is given as 4105.91^ac, the I max is reported as 12.65^ab, the Rdec is −0.01^b and the Tmax is 30.00^a. Further, in the assay on trained panelists [1] (setting [4]), the Tstart is given as 30.00^a. Also, in the assay with trained panelists [1] (setting [5]), the AUC was 182.05^a, the Imax is listed as 12.82^a, the Rinc is 0.18^b and the Tstart is recorded as 10.91^a. In assay [2] (listed as RK-2-10), the “organoleptic properties, EtOH” value was “delay onset mild cooling (post 20 seconds) with a; also recorded: slight tingling and sweetness that extended past 1”; the “organoleptic properties, PG” value is given as “Very low intensity of cooling that slowly builds with; also recorded: a skin tingling effect. Could be a good candidate”; the “organoleptic properties (entry names no solvent)” value was “exhibited a delayed onset cooling and an upfront; also recorded: bitterness from PG”. The “Tmax (time of peak intensity)” value with trained panelists [3] is recorded as 210.00^a.

For the compound `CC(C)[C@@H]1CC[C@@H](C)C[C@H]1OC(=O)CN(C)C(C)C` [Product 16, (1R,2S,5R)-2-Isopropyl-5-methylcyclohexyl 2-(isopropyl(methyl)amino)acetate], the “Iext” value in the assay on trained panelists [1] is 2.33^b. In the assay with trained panelists [1] (setting [4]), the AUC is listed as 5565.00^b, the I max was 13.37^ab, the Rdec is −0.01^b and the Rinc was 0.03^b. Further, in the assay on trained panelists [1] (setting [4]), the Tmax was 32.73^a and the Tstart is listed as 30.00^a. Also, in the assay on trained panelists [1] (setting [5]), the AUC is reported as 180.91^a, the Imax is recorded as 13.09^a, the Rdec was 0.00^b and the Rinc was 0.23^a. Also, the Tstart with trained panelists [1] (setting [5]) is 10.00^a. Moreover, in assay [2] (listed as XI-1-50), the “organoleptic properties, EtOH” value was “initial alcohol cooling burn with late onset cooling; also recorded: at 20 seconds and deep cooling at 60 seconds”; the “organoleptic properties, PG” value is given as “initial bitterness from PG cooling at 30 seconds”; the “organoleptic properties (entry names no solvent)” value is reported as “slight delay in cooling after 20 seconds with some; also recorded: upfront bitterness coming from PG. Very intense; also recorded: building cooling post 50 seconds”. Moreover, in the assay with trained panelists [3], the “Tmax (time of peak intensity)” value was 204.71^a and the “Tstart (time cooling first perceived)” value is recorded as 7.85^ac.

“(1R,2S,5R)-2-Isopropyl-5-methylcyclohexyl 2-(isopropylamino)acetate [Product 7]”: the “Iext” value in the assay on trained panelists [1] is 1.23^a. Moreover, in the assay with trained panelists [1] (setting [4]), the AUC is on record as 4344.50^ac, the I max is 12.33^ab, the Rdec was −0.01^b and the Rinc is listed as 0.00^a. Moreover, in the assay with trained panelists [1] (setting [4]), the Tmax was 36.00^a and the Tstart is 30.00^a. For the same compound, in the assay with trained panelists [1] (setting [5]), the AUC was 170.50^a, the Imax is listed as 12.43^a, the Rinc is 0.20^a and the Tstart is 11.00^a. Besides, in assay [2] (listed as XI-1-60), the “organoleptic properties, EtOH” value is “cooling started at 20 seconds with slight alcohol; also recorded: burn, very intense cooling profile from 20 seconds” and the “organoleptic properties, PG” value is listed as “Up front cooling at 10 seconds with stronger cooling; also recorded: at 20 seconds, much more intense cooling than XI-”. Besides, in the assay with trained panelists [3], the “RInc (rate of intensity increase)” value is recorded as 0.041^ab and the “Tmax (time of peak intensity)” value is listed as 210.00^a.
